{
  "source": "patent US20210008095A1",
  "about": "“METHODS FOR TREATING MUSCULAR DYSTROPHY” (Sarepta Therapeutics, Inc., priority 2015, published 2021)",
  "key": {"[1]": {"test_system": "exon 51 of the human dystrophin gene", "assay": "Exon 51 skipping in patient muscle biopsy at week 180", "format": "in vivo", "conditions": "180 weeks", "protocol": "(§1) Patients continued weekly dosing with 30 or 50 mg/kg eteplirsen under Study 202 (Study no. 4658-us-202; ClinicalTrials.gov Identifier: NCT01540409) a long-term, open-label extension study. All efficacy assessments continued to be performed during Study 202, including a third biopsy (in the left deltoid muscle) in all patients at week 48. A voluntary fourth biopsy ( 11/12 patients) was performed at week 180. Monitoring of adverse events continued throughout the study."}, "[2]": {"test_system": "dystrophin", "assay": "Dystrophin positive fibers by immunohistochemistry (MANDYS106) in muscle biopsy", "format": "in vivo, human", "protocol": "as §1\nDystrophin expression levels were determined in both the eteplirsen treated cohort and matched external control cohort, based on MANDYS106 [a gift from Glen Morris, MDA Monoclonal Antibody Library], a highly sensitive marker for dystrophin used in prior studies of eteplirsen and other exon skipping candidates. Three 10 μm frozen sections, separated by at least 200 μm, were stained with MANDYS106, followed by a secondary antibody (Alexa Fluor 594 goat antimouse antibody). Four pathologists reviewed the tissue blinded and reported percent dystrophin-positive fibers, which were calculated by dividing the number of positive fibers by the total fibers counted. As normal muscle samples have 100% dystrophin-positive fibers, percent dystrophin-positive fibers is expressed as a percentage of normal."}, "[3]": {"assay": "Safety and tolerability monitoring, Study 201/202", "format": "in vivo, human", "protocol": "Safety was assessed by evaluation of adverse events, vital signs, physical examinations, electrocardiograms, echocardiograms, and clinical laboratory testing. In addition, kidney function was monitored via regular assessments of serum cystatin C and urine cystatin C and KIM-1."}, "[4]": {"test_system": "patients with Duchenne muscular dystrophy (DMD) amenable to exon 51 skipping", "assay": "Pulmonary function testing (MIP, MEP, FVC)", "format": "in vivo, human", "conditions": "baseline through Week 192", "from_the_text": "In some embodiments, treatment with eteplirsen slows or reduces the progressive respiratory muscle dysfunction and/or failure in patients with DMD that would be expected without treatment. In some embodiments, treatment with eteplirsen stabilizes respiratory muscle function in patients with DMD. In one embodiment, treatment with eteplirsen may reduce or eliminate the need for ventilation assistance that would be expected without treatment. In one embodiment, measurements of respiratory function for tracking the course of the disease, as well as the evaluation of potential therapeutic interventions include Maximum inspiratory pressure (MIP), maximum expiratory pressure (MEP) and forced vital capacity (FVC). MIP and MEP measure the level of pressure a person can generate during inhalation and exhalation, respectively, and are sensitive measures of respiratory muscle strength. […]\n(§2) The 6MWT was administered using the protocol established for patients with DMD by McDonald, et al. (Muscle Nerve, 2010; 42:966-74; Muscle Nerve, 2010; 41:500-10 herein incorporated by reference), except there was no use of the StepWatch actimetry device. Exploratory functional outcomes included the North Star Ambulatory Assessment, quantitative muscle testing, the 9-Hole Peg Test, pulmonary function testing (PFT), timed function tests, and assessment of quality of life."}, "[5]": {"test_system": "patients with Duchenne muscular dystrophy (DMD) amenable to exon 51 skipping", "assay": "Ability to rise independently from supine / rise time", "format": "in vivo, human", "from_the_text": "In some embodiments, muscle function in a DMD patient may be assessed for ability to rise from a supine position without external assistance (independently). In some embodiments, the assessment can include whether or not the subject has the ability to rise from a supine position. In some embodiments, the assessment includes the time (e.g., in seconds) it takes for the patient to rise from a supine position without external assistance. Such measurements are well known to the skilled artisan and are described in, e.g., Bushby and Connor (2011) Clin Investig (Lond.) 1(9):1217-1235 and Henricson et al. (2013) Muscle Nerve 48(1):55-67, the disclosures of each of which are incorporated herein by reference in their entirety. In some embodiments, a patient treated by any of the methods described herein has lost the ability to rise independently from a supine position prior to beginning treatment with eteplirsen. In some embodiments, the patient lost the ability to rise independently from a supine position at least one (e.g., at least two, three, four, five, six, seven, eight, nine, 10, 11, 12, 16, 18, 20, 24, or more) month(s) prior to beginning treatment with eteplirsen. In some embodiments, a patient treated by any of the methods described herein loses the ability to rise independently from a supine position while being treated with eteplirsen. In some embodiments, the patient loses the ability to rise independently from a supine position at least one (e.g., at least two, three, four, five, six, seven, eight, nine, 10, 11, 12, 16, 18, 20, 24, 30, or 36 or more) month(s) after commencing treatment with eteplirsen.\nas §2"}, "[6]": {"conditions": "individual ambulatory subjects (n=10), year of loss of ability in brackets"}},
  "note": "“And” between values parts separate entries of the source, which are not always exact repeats. Equal values may be shown once. “Also recorded” adds a separate entry of the source.",
  "data": [
    {"substance": "RNA, [P-deoxy-P-(dimethylamino)](2′,3′-dideoxy-2′,3′-imino-2′,3′-seco)(2′a→5′)(C-m5U-C-C-A-A-C-A-m5U-C-A-A-G-G-A-A-G-A-m5U-G-G-C-A-m5U-m5U-m5U-C-m5U-A-G), 5′-[P-[4-[[2-[2-(2-hydroxyethoxy)ethoxy]ethoxy]carbonyl]-1-piperazinyl]-N,N-dimethylphosphonamidate] (antisense CTCCAACATCAAGGAAGATGGCATTTCTAG; all phosphorodiamidate morpholino (PMO); 5' piperazinyl triethylene glycol carbamate tail on phosphonamidate, further chemistry not fully specified) [eteplirsen]", "values": [
      {"measurement": "exon 51 skipping", "setting": "[1]", "result": "all patients had measurable exon 51 skipping"},
      {"measurement": "patients with dystrophin positive fibers as measured by immunohistochemistry", "setting": "[2]; 180 weeks", "result": "10 of 11"},
      {"measurement": "dystrophin positive fibers compared to matched external control patients", "setting": "[2]; after 180 weeks, four blinded pathologists, p<0.001", "result": "significantly higher amount of dystrophin positive fibers"},
      {"measurement": "drug-related serious adverse events", "setting": "[3]; over 2300 doses, 192 week treatment period", "result": "no drug-related serious adverse events"},
      {"measurement": "chemistries: hematologic, renal, coagulation or liver functions", "setting": "[3]; through 216 weeks of treatment", "result": "no clinically significant changes in hematologic, renal, coagulation or liver functions"},
      {"measurement": "electrocardiograms, echocardiograms and PFTs", "setting": "[3]; through 216 weeks of treatment", "result": "remained stable"},
      {"measurement": "physical examination and vital signs", "setting": "[3]; through 216 weeks of treatment", "result": "no clinically significant changes"},
      {"measurement": "tolerability: adverse events, discontinuations, missed doses", "setting": "[3]; through 216 weeks of treatment", "result": "well tolerated with no treatment-related adverse events, serious adverse events, discontinuations or missed doses"},
      {"measurement": "pulmonary function (MIP, MEP, FVC)", "setting": "[4]", "result": "continued stabilization of pulmonary function; also recorded: either maintained or had only a slight decline in all of MIP, MEP, and FVC"},
      {"measurement": "number of patients who lost the ability to rise without external support", "setting": "[5]; from years 1 to 3", "result": "four"},
      {"measurement": "Year 3 Rise Time", "setting": "[5]; [6]", "result": "24.1 s and 17.9 s and 13.1 s and 8.9 s and 8.2 s and 6.2 s"},
      {"measurement": "Year 3 Rise Time(s)", "setting": "[5]; [6]", "result": "Unable to rise"}
    ]}
  ]
}
